Results: patent US7132435B2, “Compounds” (Pfizer Inc., priority 2003, dated 2006)

Test system: human peripheral blood mononuclear cells
Assay: TNFα release from LPS-stimulated human peripheral blood mononuclear cells (TNFα screen)
Assay type: cell-based
Conditions: PBMC, 18 hours incubation, TNFα in supernatant by ELISA
Experimental: Venous blood is collected from healthy volunteers and the mononuclear cells purified by centrifugation through Histopaque (Ficoll) cushions. TNFα production from these cells is stimulated by addition of lipopolysaccharide. After 18 hours incubation in the presence of LPS, the cell supernatant is removed and the concentration of TNFα in the supernatant determined by ELISA. Addition of PDE4 inhibitors reduces the amount of TNFα produced. An IC50 is determined which is equal to the concentration of compound that gives 50% inhibition of TNFα production as compared to the LPS stimulated control wells.

Row | Compound | IC50
1 | O=C(N[C@H]1CC[C@@H](NC(=O)c2cccn3ccnc23)CC1)c1cc(F)cnc1Oc1ccc2c(c1)SCC2 [Example 1, Syn-imidazo[1,2-a]pyridine-8-carboxylic acid (4-{[2-(2,3-dihydro-benzo[b]thiophen-6-yloxy)-5-fluoro-pyridine-3-carbonyl]-amino}-cyclohexyl)-amide] | 0.6 nM
2 | Cc1ccc(C(=O)N[C@H]2CC[C@@H](NC(=O)c3cc(F)cnc3Oc3ccc4c(c3)SCC4)CC2)c(O)c1 [Example 3, Syn-2-(2,3-dihydro-benzo[b]thiophen-6-yloxy)-5-fluoro-N-[4-(2-hydroxy-4-methyl-benzoylamino)-cyclohexyl]-nicotinamide] | 0.8 nM
